Assay results from ChEMBL document CHEMBL3885881, “DrugMatrix”.

Species on record: Rattus norvegicus
Experiment: DrugMatrix - Regimen: Daily Repeat
Assay type: toxicity, organism-based, Sprague-Dawley
Design: regimen Daily Repeat, gender Male, age 6-8 weeks
Conditions: in vivo, sc, route subcutaneous, […]; for ABSOLUTE BASOPHIL / ABSOLUTE EOSINOPHIL / ABSOLUTE LYMPHOCYTE / ABSOLUTE MONOCYTE / ABSOLUTE SEGMENTED NEUTROPHIL / BASOPHIL / EOSINOPHIL / ERYTHROCYTE COUNT / HEMATOCRIT / HEMOGLOBIN / LEUKOCYTE COUNT / LYMPHOCYTE / MEAN CORPUSCULAR HEMOGLOBIN / MEAN CORPUSCULAR HEMOGLOBIN CONCENTRATION / MEAN CORPUSCULAR VOLUME / MONOCYTE / NEUTROPHIL / NUCLEATED RED BLOOD CELLS / PLATELET COUNT: tissue Blood; for ALANINE AMINOTRANSFERASE / ALKALINE PHOSPHATASE / ASPARTATE AMINOTRANSFERASE / BLOOD UREA NITROGEN / CARBON DIOXIDE / CHLORIDE / CHOLESTEROL / CREATINE PHOSPHOKINASE / CREATININE / GLUCOSE / LACTATE DEHYDROGENASE / LIPASE / PHOSPHORUS / POTASSIUM / SODIUM / TOTAL BILIRUBIN / TOTAL PROTEIN / URIC ACID: tissue Plasma
[1] = 0 mg/kg, 72 h, dose level Control, time 3 day
[2] = 0 mg/kg, 120 h, dose level Control, time 5 day
[3] = 17 mg/kg, 72 h, dose level Low, time 3 day

Compound: CC(C)Cn1cnc2c(N)nc3ccccc3c21 [IMIQUIMOD]
- ABSOLUTE BASOPHIL [1]: 0 CELLS/uL
- ABSOLUTE EOSINOPHIL [1]: 42.67 CELLS/uL
- ABSOLUTE LYMPHOCYTE [1]: 10202 CELLS/uL
- ABSOLUTE MONOCYTE [1]: 261.5 CELLS/uL
- ABSOLUTE SEGMENTED NEUTROPHIL [1]: 2193.83 CELLS/uL
- BASOPHIL [1]: 0%
- EOSINOPHIL [1]: 0.33%
- ERYTHROCYTE COUNT [1]: 5.63 x10E6/uL
- HEMATOCRIT [1]: 35.35%
- HEMOGLOBIN [1]: 13.07 G/DL
- LEUKOCYTE COUNT [1]: 12.7 x10E3/uL
- LYMPHOCYTE [1]: 81.17%
- MEAN CORPUSCULAR HEMOGLOBIN [1]: 23.23 pg
- MEAN CORPUSCULAR HEMOGLOBIN CONCENTRATION [1]: 36.97 G/DL
- MEAN CORPUSCULAR VOLUME [1]: 62.82 fL
- MONOCYTE [1]: 2%
- NEUTROPHIL [1]: 16.5%
- NUCLEATED RED BLOOD CELLS [1]: 0 /100WBC
- PLATELET COUNT [1]: 1180.33 x10E3/uL
- ALANINE AMINOTRANSFERASE [1]: 48.67 u/L
- ALKALINE PHOSPHATASE [1]: 360.67 u/L
- ASPARTATE AMINOTRANSFERASE [1]: 85.5 u/L
- BLOOD UREA NITROGEN [1]: 17.83 mg/dL
- CARBON DIOXIDE [1]: 26.17 mmol/L
- CHLORIDE [1]: 101.83 MEQ/L
- CHOLESTEROL [1]: 71 mg/dL
- CREATINE PHOSPHOKINASE [1]: 515.17 u/L
- CREATININE [1]: 0.22 mg/dL
- GLUCOSE [1]: 192.5 mg/dL
- LACTATE DEHYDROGENASE [1]: 214.67 u/L
- LIPASE [1]: 8.5 u/L
- PHOSPHORUS [1]: 12.95 mg/dL
- POTASSIUM [1]: 6.39 MEQ/L
- SODIUM [1]: 142.38 MEQ/L
- TOTAL BILIRUBIN [1]: 0.18 mg/dL
- TOTAL PROTEIN [1]: 5.95 G/DL
- URIC ACID [1]: 1.83 mg/dL
- ABSOLUTE BASOPHIL [2]: 0 CELLS/uL
- ABSOLUTE EOSINOPHIL [2]: 188.5 CELLS/uL
- ABSOLUTE LYMPHOCYTE [2]: 12360.83 CELLS/uL
- ABSOLUTE MONOCYTE [2]: 64.33 CELLS/uL
- ABSOLUTE SEGMENTED NEUTROPHIL [2]: 1986.33 CELLS/uL
- BASOPHIL [2]: 0%
- EOSINOPHIL [2]: 1.33%
- ERYTHROCYTE COUNT [2]: 5.52 x10E6/uL
- HEMATOCRIT [2]: 35.82%
- HEMOGLOBIN [2]: 13.25 G/DL
- LEUKOCYTE COUNT [2]: 14.6 x10E3/uL
- LYMPHOCYTE [2]: 84.5%
- MEAN CORPUSCULAR HEMOGLOBIN [2]: 24.05 pg
- MEAN CORPUSCULAR HEMOGLOBIN CONCENTRATION [2]: 36.98 G/DL
- MEAN CORPUSCULAR VOLUME [2]: 64.97 fL
- MONOCYTE [2]: 0.5%
- NEUTROPHIL [2]: 13.67%
- NUCLEATED RED BLOOD CELLS [2]: 0 /100WBC
- PLATELET COUNT [2]: 1297.83 x10E3/uL
- ALANINE AMINOTRANSFERASE [2]: 51.17 u/L
- ALKALINE PHOSPHATASE [2]: 393.17 u/L
- ASPARTATE AMINOTRANSFERASE [2]: 111 u/L
- BLOOD UREA NITROGEN [2]: 18.17 mg/dL
- CARBON DIOXIDE [2]: 25 mmol/L
- CHLORIDE [2]: 105.17 MEQ/L
- CHOLESTEROL [2]: 65.5 mg/dL
- CREATINE PHOSPHOKINASE [2]: 911.5 u/L
- CREATININE [2]: 0.21 mg/dL
- GLUCOSE [2]: 183 mg/dL
- LACTATE DEHYDROGENASE [2]: 189 u/L
- LIPASE [2]: 8.33 u/L
- PHOSPHORUS [2]: 12.78 mg/dL
- POTASSIUM [2]: 6.05 MEQ/L
- SODIUM [2]: 144.57 MEQ/L
- TOTAL BILIRUBIN [2]: 0.25 mg/dL
- TOTAL PROTEIN [2]: 5.83 G/DL
- URIC ACID [2]: 1.58 mg/dL
- ABSOLUTE BASOPHIL [3]: 0 CELLS/uL
- ABSOLUTE EOSINOPHIL [3]: 0 CELLS/uL
- ABSOLUTE LYMPHOCYTE [3]: 10952 CELLS/uL
- ABSOLUTE MONOCYTE [3]: 127.67 CELLS/uL
- ABSOLUTE SEGMENTED NEUTROPHIL [3]: 1687 CELLS/uL
- BASOPHIL [3]: 0%
- EOSINOPHIL [3]: 0%
- ERYTHROCYTE COUNT [3]: 5.23 x10E6/uL
- HEMATOCRIT [3]: 32.37%
- HEMOGLOBIN [3]: 11.97 G/DL
- LEUKOCYTE COUNT [3]: 12.77 x10E3/uL
- LYMPHOCYTE [3]: 86.33%
- MEAN CORPUSCULAR HEMOGLOBIN [3]: 22.9 pg
- MEAN CORPUSCULAR HEMOGLOBIN CONCENTRATION [3]: 37 G/DL
- MEAN CORPUSCULAR VOLUME [3]: 61.93 fL
- MONOCYTE [3]: 1%
- NEUTROPHIL [3]: 12.67%
- NUCLEATED RED BLOOD CELLS [3]: 0 /100WBC
- PLATELET COUNT [3]: 1138.33 x10E3/uL
- ALANINE AMINOTRANSFERASE [3]: 57.67 u/L
- ALKALINE PHOSPHATASE [3]: 333.67 u/L
- ASPARTATE AMINOTRANSFERASE [3]: 91.67 u/L
- BLOOD UREA NITROGEN [3]: 17.33 mg/dL
- CARBON DIOXIDE [3]: 27 mmol/L
- CHLORIDE [3]: 104.67 MEQ/L
- CHOLESTEROL [3]: 71 mg/dL
- CREATINE PHOSPHOKINASE [3]: 483 u/L
- CREATININE [3]: 0.24 mg/dL
- GLUCOSE [3]: 177 mg/dL
- LACTATE DEHYDROGENASE [3]: 117.33 u/L
- LIPASE [3]: 7.67 u/L
- PHOSPHORUS [3]: 13 mg/dL
- POTASSIUM [3]: 6.18 MEQ/L
- SODIUM [3]: 146.27 MEQ/L
- TOTAL BILIRUBIN [3]: 0.17 mg/dL
- TOTAL PROTEIN [3]: 5.53 G/DL
- URIC ACID [3]: 1.6 mg/dL
